In US6352958B1, “Cycloimido-substituted benzofused heterocyclic herbicides” (FMC Corporation, priority 1997, dated 2002):

Columns and labels:
Type in all cases: in vivo
[1] = system: soybean (Glycine max var. Winchester); test: Preemergence herbicidal activity, soybean; conditions: Rate of Application 0.3 Kg/Ha, examined after 12-17 days
[2] = system: wheat (Triticum aestivum var. Lew); test: Preemergence herbicidal activity, wheat; conditions: Rate of Application 0.3 Kg/Ha, examined after 12-17 days
[3] = system: field corn (Zea mays var. Pioneer 3732); test: Preemergence herbicidal activity, corn; conditions: Rate of Application 0.3 Kg/Ha, examined after 12-17 days
[4] = system: velvetleaf (Abutilon theophrasti); test: Preemergence herbicidal activity, velvetleaf; conditions: Rate of Application 0.3 Kg/Ha, examined after 12-17 days
[5] = system: morningglory (Ipomea lacunosa or Ipomea hederacea); test: Preemergence herbicidal activity, morningglory; conditions: Rate of Application 0.3 Kg/Ha, examined after 12-17 days
[6] = system: common chickweed (Stellaria media); test: Preemergence herbicidal activity, chickweed; conditions: Rate of Application 0.3 Kg/Ha, examined after 12-17 days
[7] = system: blackgrass (Aloepecurus myosuroides); test: Preemergence herbicidal activity, blackgrass; conditions: Rate of Application 0.3 Kg/Ha, examined after 12-17 days
[8] = system: green foxtail (Setaria viridis); test: Preemergence herbicidal activity, green foxtail; conditions: Rate of Application 0.3 Kg/Ha, examined after 12-17 days
[9] = system: Johnsongrass (Sorghum halepense); test: Preemergence herbicidal activity, johnsongrass; conditions: Rate of Application 0.3 Kg/Ha, examined after 12-17 days
[10] = system: soybean (Glycine max var. Winchester); test: Postemergence herbicidal activity, soybean; conditions: rate of application 0.3 Kg/Ha, rated after 12-17 days
[11] = system: wheat (Triticum aestivum var. Lew); test: Postemergence herbicidal activity, wheat; conditions: rate of application 0.3 Kg/Ha, rated after 12-17 days
[12] = system: field corn (Zea mays var. Pioneer 3732); test: Postemergence herbicidal activity, corn; conditions: rate of application 0.3 Kg/Ha, rated after 12-17 days
[13] = system: velvetleaf (Abutilon theophrasti); test: Postemergence herbicidal activity, velvetleaf; conditions: rate of application 0.3 Kg/Ha, rated after 12-17 days
[14] = system: morningglory (Ipomea lacunosa or Ipomea hederacea); test: Postemergence herbicidal activity, morningglory; conditions: rate of application 0.3 Kg/Ha, rated after 12-17 days
[15] = system: common chickweed (Stellaria media); test: Postemergence herbicidal activity, chickweed; conditions: rate of application 0.3 Kg/Ha, rated after 12-17 days
[16] = system: common cocklebur (Xanthium strumarium L.); test: Postemergence herbicidal activity, cocklebur; conditions: rate of application 0.3 Kg/Ha, rated after 12-17 days
[17] = system: blackgrass (Aloepecurus myosuroides); test: Postemergence herbicidal activity, blackgrass; conditions: rate of application 0.3 Kg/Ha, rated after 12-17 days
[18] = system: green foxtail (Setaria viridis); test: Postemergence herbicidal activity, green foxtail; conditions: rate of application 0.3 Kg/Ha, rated after 12-17 days
[19] = system: Johnsongrass (Sorghum halepense); test: Postemergence herbicidal activity, johnsongrass; conditions: rate of application 0.3 Kg/Ha, rated after 12-17 days
[20] = system: common cocklebur (Xanthium strumarium L.); test: Preemergence herbicidal activity, cocklebur; conditions: Rate of Application 0.3 Kg/Ha, examined after 12-17 days

Row | SMILES | PREEMERGENCE HERBICIDAL ACTIVITY (% CONTROL) SOY [1] [%] | PREEMERGENCE HERBICIDAL ACTIVITY (% CONTROL) WHT [2] [%] | PREEMERGENCE HERBICIDAL ACTIVITY (% CONTROL) CRN [3] [%] | PREEMERGENCE HERBICIDAL ACTIVITY (% CONTROL) ABUTH [4] [%] | PREEMERGENCE HERBICIDAL ACTIVITY (% CONTROL) IPOSS [5] [%] | PREEMERGENCE HERBICIDAL ACTIVITY (% CONTROL) STEME [6] [%] | PREEMERGENCE HERBICIDAL ACTIVITY (% CONTROL) ALOMY [7] [%] | PREEMERGENCE HERBICIDAL ACTIVITY (% CONTROL) SETVI [8] [%] | PREEMERGENCE HERBICIDAL ACTIVITY (% CONTROL) SORHA [9] [%] | Postemergence herbicidal activity (% control) SOY [10] [%] | Postemergence herbicidal activity (% control) WHT [11] [%] | Postemergence herbicidal activity (% control) CRN [12] [%] | Postemergence herbicidal activity (% control) ABUTH [13] [%] | Postemergence herbicidal activity (% control) IPOSS [14] [%] | Postemergence herbicidal activity (% control) STEME [15] [%] | Postemergence herbicidal activity (% control) XANPE [16] [%] | Postemergence herbicidal activity (% control) ALOMY [17] [%] | Postemergence herbicidal activity (% control) SETVI [18] [%] | Postemergence herbicidal activity (% control) SORHA [19] [%] | PREEMERGENCE HERBICIDAL ACTIVITY (% CONTROL) XANPE [20] [%]
1 | Cn1c(C(F)(F)F)cc(=O)n(-c2c(F)cc(Cl)c3cc(C(C)(C)C)oc23)c1=O [Compound 227] | 100 | 80 | 90 | 100 | 100 | 100 | 95 | 100 | 100 | 95 | 60 | 90 | 100 | 100 | 100 | 100 | 100 | 100 | 100 | 
2 | CC(C)C(=O)OC(C)c1cc2c(Cl)cc(F)c(-n3c(=O)cc(C(F)(F)F)n(C)c3=O)c2o1 (stereo not shown) [Compound 247] | 100 | 90 | 90 | 100 | 100 | 95 | 85 | 100 | 100 | 95 | 80 | 100 | 100 | 100 | 100 | 100 | 100 | 100 |  | 100
3 | CNC(=O)OC(C)c1cc2c(Cl)cc(F)c(-n3c(=O)cc(C(F)(F)F)n(C)c3=O)c2o1 (stereo not shown) [Compound 249] | 100 | 80 | 95 | 100 | 100 | 100 | 80 | 10 | 100 | 95 | 80 | 100 | 100 | 100 | 100 | 100 | 100 | 100 |  | 90
4 | CC(C)c1cc2c(Cl)cc(F)c(-n3c(=O)cc(C(F)(F)F)n(C)c3=O)c2o1 [Compound 224] | 100 | 80 | 90 | 100 | 100 | 100 | 80 | 100 | 100 | 95 | 70 | 100 | 100 | 100 | 100 | 100 | 90 | 100 |  | 95
5 | Cn1c(C(F)(F)F)cc(=O)n(-c2ccc(Cl)c3cc(-c4ccccc4)oc23)c1=O [Compound 264] | 0 | 0 | 10 | 20 | 0 | 20 | 0 | 10 | 10 | 50 | 20 | 50 | 40 | 40 | 0 | 30 | 0 |  | 20 | 30
6 | CC(OC(C)(C)C)c1cc2c(Cl)cc(F)c(-n3c(=O)cc(C(F)(F)F)n(C)c3=O)c2o1 (stereo not shown) [Compound 244] | 95 | 80 | 100 | 100 | 90 | 70 | 70 | 100 | 100 | 95 | 60 | 90 | 100 | 100 | 100 | 100 | 75 | 100 |  | 100
7 | Cn1c(C(F)(F)F)cc(=O)n(-c2c(F)cc(Cl)c3cc(CCCC#N)oc23)c1=O [Compound 256] | 100 | 80 | 95 | 100 | 100 | 100 | 70 | 100 | 90 | 100 | 80 | 90 | 100 | 100 | 100 | 100 | 80 | 100 | 100 | 
